Results as given in patent publication US20100229250A1, “TREATMENT AND PREVENTION OF ISCHEMIC BRAIN INJURY” (THE JOHNS HOPKINS UNIVERSITY, priority 2007, published 2010).
Entries after “also recorded” stand apart in the source; their conditions may differ.

Key:
FP receptor [1] = assay: Neurological deficit score after transient ischemia (90-min MCAO), post-treatment with FP agonist; format: in vivo, mouse; settings: FP−/− mice, 100 μg/kg orally 30 min after reperfusion, scored at 96 h, mean±S.E.M., p<0.05 vs latanoprost-treated WT
Procedure: (§1) Transient ischemia protocol. WT (n=11) and FP^−/− (n=12) mice were subjected to MCAO for 90 min followed by 96 h of reperfusion (Ahmad et al., 2006a). Mice were placed under halothane anesthesia (3.0% for induction, 1.0% for maintenance) and ventilated with oxygen-enriched air via a nose cone. Body temperatures were maintained at 37.0±0.5° C. by a heating pad. The mice were subjected to the intraluminal filament technique to produce the MCAO model of transient focal cerebral ischemia as we have described previously (Ahmad et al., 2006a). Relative cerebral blood flow (CBF) was measured by laser-Doppler flowmetry (Moor instruments, Devon, England) with a flexible probe affixed to the skull over the parietal cortex supplied by the MCA (2 mm posterior and 6 mm lateral to bregma). […] During occlusion, mice were kept in a humidity-controlled, 32° C. chamber to help maintain a body core temperature of 37° C. After 90 min of occlusion, mice were briefly re-anesthetized, the midline was reopened, and the filament was removed to establish reperfusion. After the incision was sutured, mice were again placed in the humidity- and temperature-controlled chamber for another 6 h and finally returned to their respective cages for survival up to 96 h.
(§2) Assessment of neurological deficit score. Neurological function was measured in each mouse at 96 h after reperfusion according to the following graded scoring system, as described previously (Li et al., 2004): 0=no deficit; 1=forelimb weakness and torso turning to the ipsilateral side when held by tail; 2=circling to affected side; 3=unable to bear weight on affected side; and 4=no spontaneous locomotor activity or barrel rolling.
(§3) Post-treatment of mice with the FP agonist latanoprost. […] At 96 h after MCAO, neurological deficit scores and brain injury were measured. […]

FP receptor [2] = target: T1, FP receptor (Mus musculus, UniProt P43117); assay: as above; format: in vivo; settings: WT mice
T1 construct: WT mice were post-treated orally with 10 μg/kg (n=10) or 100 μg/kg (n=8) latanoprost 30 min after reperfusion; endogenous in cells; host or cells: wild-type mice, whole animal (in vivo); FP-/- mice used as receptor-null control
Procedure: as §1, §2, §3

FP receptor [3] = target: T1, FP receptor; assay: Brain infarction (TTC staining) after transient ischemia (90-min MCAO), post-treatment with FP agonist; format: in vivo; settings: WT mice, TTC at 96 h
Procedure: as §1, with “After 90 min of occlusion, mice were briefly re-anesthetized, the midline was reopened, and the filament was removed to establish reperfusion. After the incision was sutured, mice were again placed in the humidity- and temperature-controlled chamber for another 6 h and finally returned to their respective cages for survival up to 96 h.” left out
as §3
Assessment of brain infarction. […] Infarct volume was assessed by 2,3,5-triphenyltetrazolium chloride (TTC) staining by an observer blinded to the treatments, as described previously (Ahmad et al., 2006a). […] The corrected volume of the infarcted hemisphere was calculated as: volume of contralateral hemisphere−(volume of ipsilateral hemisphere−volume of infarct).

T1 sequence (P43117 whole entry, the tested form may be a part): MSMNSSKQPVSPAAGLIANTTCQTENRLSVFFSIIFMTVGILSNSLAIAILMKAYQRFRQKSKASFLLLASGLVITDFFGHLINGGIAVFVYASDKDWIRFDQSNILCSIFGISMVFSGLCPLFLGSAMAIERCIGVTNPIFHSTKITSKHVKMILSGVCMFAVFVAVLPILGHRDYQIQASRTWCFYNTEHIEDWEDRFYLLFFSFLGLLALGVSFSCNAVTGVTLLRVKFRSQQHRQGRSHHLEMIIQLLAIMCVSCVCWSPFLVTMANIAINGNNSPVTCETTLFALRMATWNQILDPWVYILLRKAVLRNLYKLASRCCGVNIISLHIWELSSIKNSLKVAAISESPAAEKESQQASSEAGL

CC(C)OC(=O)CCC/C=C\C[C@@H]1[C@@H](CC[C@@H](O)CCc2ccccc2)[C@H](O)C[C@@H]1O [latanoprost, 13,14-dihydro-17-phenyl-18,19,20-trinor-PGF2α isopropyl ester]
neurological deficit score (FP receptor [1]): 1.4±0.2
neurological deficit score (FP receptor [2]; 10 μg/kg orally 30 min after reperfusion, scored at 96 h (scale 0-4), mean±S.E.M., vehicle 1.8±0.2, not significant): 2.2±0.2
neurological deficit score (FP receptor [2]; 100 μg/kg orally 30 min after reperfusion, scored at 96 h, p<0.05 vs vehicle): significantly increased the neurological deficit
brain damage (corrected infarct volume) (FP receptor [3]; 10 μg/kg orally 30 min after reperfusion, vs vehicle): trend toward increased brain damage
brain damage (corrected infarct volume) (FP receptor [3]; 100 μg/kg orally 30 min after reperfusion, p<0.05 vs vehicle): significantly larger infarct volumes; also recorded: became significant
